How the values were obtained:
[1] = tested on: Middle East respiratory syndrome-related coronavirus; assay: microbe, parasite or virus in culture; assay type: functional, organism-based, Chlorocebus sabaeus, VeroE6/TMPRSS2; conditions: Middle East respiratory syndrome-related coronavirus, VeroE6/TMPRSS2
SARS-CoV-2 [2] = assay: (§1) Functional immunofluorescence assay to measure dose dependent changes in antiviral-drug inhibitory efficacy against hCoV-19/USA-WA1/2020 in HeLa-ACE2 cells which are seeded prior to drug treatment, then infected with hCoV-19/USA-WA1/2020. Cells are fixed with 10 % formaldehyde, washed with PBS, permeabilized with permeabilization buffer, then washed with wash buffer. The cells are incubated with nucleoprotein primary antibody IC7C7. Following primary staining, cells are washed with wash buffer and incubated in a solution of with Alexa fluor 488 and DAPI. Infected and uninfected cells are visualized and analyzed by Gen5 software. The assay has been performed by Icahn School of Medicine at Mount Sinai.; assay type: organism-based, Homo sapiens
SARS-CoV-2 [3] = assay: as §1, with “iPSC-Pneumocyte” for “HeLa-ACE2”, “to” for “to drug”; assay type: organism-based, Homo sapiens; conditions: Severe acute respiratory syndrome coronavirus 2, Pneumocyte; for EC90: Baseline response 0 %, Maximum response 100 %
[4] = tested on: Middle East respiratory syndrome-related coronavirus; assay: microbe, parasite or virus in culture; assay type: functional, organism-based, Chlorocebus sabaeus; conditions: Vero 76
[5] = Severe acute respiratory syndrome coronavirus 2, HeLa-ACE2

## Cn1ncc(-c2cc3c(N[C@@H](c4ccc5c(n4)OCCO5)C(C)(C)C)ncnc3[nH]2)c1C#N
[1]
  EC50: > 5 µM
  EC90: > 5 µM
SARS-CoV-2 [2]; [5]
  EC50: 1.49 µM
SARS-CoV-2 [2]; Severe acute respiratory syndrome coronavirus 2, HeLa-ACE2, Baseline response 0 %, Hill slope -0.781, Maximum measured 101.751 %, Maximum response 100 %, Minimum measured 4.671 %, R squared 0.23
  EC90: > 20 µM
SARS-CoV-2 [2]; Severe acute respiratory syndrome coronavirus 2, HeLa-ACE2, Baseline response 0 %, Hill slope -0.984, Maximum measured 108.122 %, Maximum response 100 %, Minimum measured 8.006 %, R squared 0.973
  EC90: > 10 µM
SARS-CoV-2 [2]; hela-ace2
  EC50: 1.6 µM

## Cc1nn(C)cc1-c1cc2c(N[C@H](c3ccc4c(c3)S(=O)(=O)CCC4)C(C)C)ncnc2[nH]1
[1]
  EC50: > 5 µM
  EC90: > 5 µM
SARS-CoV-2 [2]; [5]
  EC50: > 20 µM
SARS-CoV-2 [2]; Severe acute respiratory syndrome coronavirus 2, HeLa-ACE2, Baseline response 0 %, Hill slope -2.191, Maximum measured 111.189 %, Maximum response 100 %, Minimum measured 56.402 %, R squared 0.73
  EC90: > 20 µM
SARS-CoV-2 [2]; Severe acute respiratory syndrome coronavirus 2, HeLa-ACE2, Baseline response 0 %, Hill slope -5.449, Maximum measured 120.747 %, Maximum response 100 %, Minimum measured 82.491 %, R squared 0.099
  EC90: > 20 µM

## CC(C)[C@@H](Nc1ncnc2[nH]c(C(=O)N[C@@H]3CCN(C)C3)cc12)c1ccc2c(c1)S(=O)(=O)CCC2
[1]
  EC50: > 5 µM
  EC90: > 5 µM
SARS-CoV-2 [2]; [5]
  EC50: > 20 µM
SARS-CoV-2 [2]; Severe acute respiratory syndrome coronavirus 2, HeLa-ACE2, Baseline response 0 %, Hill slope 0.166, Maximum measured 108.327 %, Maximum response 100 %, Minimum measured 87.557 %, R squared 0.011
  EC90: > 20 µM
SARS-CoV-2 [2]; Severe acute respiratory syndrome coronavirus 2, HeLa-ACE2, Baseline response 0 %, Hill slope -0.788, Maximum measured 109.068 %, Maximum response 100 %, Minimum measured 93.8 %, R squared 0.114
  EC90: > 20 µM
SARS-CoV-2 [3]
  EC50: > 50 µM
SARS-CoV-2 [3]; Hill slope -0.484, Maximum measured 101.646 %, Minimum measured 52.305 %, R squared 0.601
  EC90: > 50 µM

## COc1ccc([C@H](Cc2nnn[nH]2)NC(=O)c2ncnc3[nH]ccc23)cc1
[1]
  EC50: > 5 µM
  EC90: > 5 µM
SARS-CoV-2 [2]; [5]
  EC50: > 20 µM
SARS-CoV-2 [2]; Severe acute respiratory syndrome coronavirus 2, HeLa-ACE2, Baseline response 0 %, Hill slope -0.286, Maximum measured 116.588 %, Maximum response 100 %, Minimum measured 75.952 %, R squared 0.436
  EC90: > 20 µM
SARS-CoV-2 [2]; Severe acute respiratory syndrome coronavirus 2, HeLa-ACE2, Baseline response 0 %, Hill slope -1.346, Maximum measured 102.013 %, Maximum response 100 %, Minimum measured 88.847 %, R squared 0.139
  EC90: > 20 µM

## CNCc1cc(-c2cc3c(N[C@@H](c4ccc5c(c4)S(=O)(=O)CCC5)C(C)C)ncnc3[nH]2)co1
[1]
  EC50: > 5 µM
  EC90: > 5 µM
SARS-CoV-2 [2]; [5]
  EC50: > 20 µM
SARS-CoV-2 [2]; Severe acute respiratory syndrome coronavirus 2, HeLa-ACE2, Baseline response 0 %, Hill slope -1.471, Maximum measured 134.366 %, Maximum response 100 %, Minimum measured 28.123 %, R squared 0.287
  EC90: > 20 µM
SARS-CoV-2 [2]; Severe acute respiratory syndrome coronavirus 2, HeLa-ACE2, Baseline response 0 %, Hill slope -3.107, Maximum measured 113.346 %, Maximum response 100 %, Minimum measured 56.361 %, R squared 0.692
  EC90: > 20 µM
SARS-CoV-2 [2]; hela-ace2
  EC50: 11.6 µM
SARS-CoV-2 [3]
  EC50: 3.34 µM
SARS-CoV-2 [3]; Hill slope -0.579, Maximum measured 92.989 %, Minimum measured 2.106 %, R squared 0.758
  EC90: > 50 µM

## C[C@H](C(=O)O)[C@@H](NC(=O)c1ncnc2[nH]ccc12)c1ccc(Br)cc1
[1]
  EC50: > 5 µM
  EC90: > 5 µM
SARS-CoV-2 [2]; [5]
  EC50: > 20 µM
SARS-CoV-2 [2]; Severe acute respiratory syndrome coronavirus 2, HeLa-ACE2, Baseline response 0 %, Hill slope -0.083, Maximum measured 104.611 %, Maximum response 100 %, Minimum measured 71.809 %, R squared 0.037
  EC90: > 20 µM
SARS-CoV-2 [2]; Severe acute respiratory syndrome coronavirus 2, HeLa-ACE2, Maximum measured 2742.07 %, Minimum measured 91.919 %
  EC90: > 20 µM

## CNC(=O)Cn1cc(-c2cc3c(N[C@@H](c4ccc5c(c4)S(=O)(=O)CCC5)C(C)C)ncnc3[nH]2)cn1
[1]
  EC50: > 5 µM
  EC90: > 5 µM
SARS-CoV-2 [2]; [5]
  EC50: > 20 µM
SARS-CoV-2 [2]; Severe acute respiratory syndrome coronavirus 2, HeLa-ACE2, Baseline response 0 %, Hill slope 1.327, Maximum measured 117.537 %, Maximum response 100 %, Minimum measured 90.244 %, R squared 0.066
  EC90: > 20 µM
SARS-CoV-2 [2]; Severe acute respiratory syndrome coronavirus 2, HeLa-ACE2, Maximum measured 116.513 %, Minimum measured 98.017 %
  EC90: > 20 µM
SARS-CoV-2 [3]
  EC50: > 50 µM
SARS-CoV-2 [3]; Hill slope -7.964, Maximum measured 130.776 %, Minimum measured 73.915 %, R squared 0.151
  EC90: > 50 µM

## CC(C)[C@@H](Nc1ncnc2[nH]c(-c3cnn(C)c3C#N)cc12)c1ccc2c(n1)OCCO2
[1]
  EC50: > 5 µM
  EC90: > 5 µM
SARS-CoV-2 [2]; Baseline response 0 %, EC90 CI (lower) 0.252 uM, EC90 CI (upper) 0.378 uM, Hill slope -1.375, Maximum measured 105.062 %, Maximum response 100 %, Minimum measured 1.471 %, R squared 0.975
  EC90: 7.55 µM
SARS-CoV-2 [2]; Baseline response 0 %, EC90 CI (lower) 1.033 uM, EC90 CI (upper) 2.755 uM, Hill slope -2.587, Maximum measured 119.294 %, Maximum response 100 %, Minimum measured 1.653 %, R squared 0.93
  EC90: 9.22 µM
SARS-CoV-2 [2]; Severe acute respiratory syndrome coronavirus 2, HeLa-ACE2, Baseline response 0 %, Hill slope -24.486, Maximum measured 143.7 %, Maximum response 100 %, Minimum measured 4.604 %, R squared 0.738
  EC90: 6.44 µM
SARS-CoV-2 [2]; Severe acute respiratory syndrome coronavirus 2, HeLa-ACE2, Baseline response 0 %, EC90 CI (lower) 1.926 uM, EC90 CI (upper) 3.068 uM, Hill slope -3.008, Maximum measured 101.777 %, Maximum response 100 %, Minimum measured 4.949 %, R squared 0.988
  EC90: 10.5 µM
SARS-CoV-2 [3]
  EC50: 12.7 µM
SARS-CoV-2 [3]; EC90 CI (lower) 0 uM, EC90 CI (upper) 0 uM, Hill slope -10.753, Maximum measured 116.418 %, Minimum measured 5.314 %, R squared 0.553
  EC90: 15.6 µM

## CNC(=O)c1c[nH]c2ncnc(N[C@H](c3ccc4c(c3)S(=O)(=O)CCC4)C(C)C)c12
SARS-CoV-2 [2]; [5]
  EC50: > 20 µM
SARS-CoV-2 [2]; Severe acute respiratory syndrome coronavirus 2, HeLa-ACE2, Baseline response 0 %, Hill slope -10.584, Maximum measured 109.331 %, Maximum response 100 %, Minimum measured 66.391 %, R squared 0.561
  EC90: > 20 µM
[4]
  EC50: > 32 µM
SARS-CoV-2 [3]
  EC50: 6.74 µM
SARS-CoV-2 [3]; Hill slope -0.412, Maximum measured 88.736 %, Minimum measured 31.934 %, R squared 0.862
  EC90: > 50 µM
